Assays:
Assay type in all cases: in vivo, male Sprague-Dawley I.O.P.S. rats
[1] = system: granuloma; assay: Local anti-inflammatory activity: inhibition of granuloma formation around implanted cotton wool pellet; conditions: Table 1; for R 1 (relative local anti-inflammatory activity compared with betamethasone 17,21-dipropionate): D.P.B. = 1, calculated from ED50; for ED50 (local anti-inflammatory activity, 50% inhibition in granuloma weight): rat, cotton pellet granuloma, six days after implantation
Method: A. Winter and C. C. Porter (J. Am. Pharm. Ass. 1957, 46, 9, pages 515-519).
(§1) The principle of the test consists in implanting a pellet of cotton wool in the dorsal subcutaneous tissue of the animal. The corticoids to be studied are added to the pellet so that the following tests can be carried out:
(1) Determination of the local anti-inflammatory activity
The presence of products within the pellet may inhibit or prevent the formation of a granuloma.
(§2) The animals are divided into random homogeneous groups of 10 male Sprague-Dawley I.O.P.S. rats with a body weight of between 100 and 120 grams.
(§3) The pellets to be implanted weigh from 35 to 40 mg and are prepared from balls of dental cotton wool. Before being inserted, each pellet is weighed and impregnated with the precise quantity of the product which is to be studied, dissolved in 0.2 ml of chloroform. The chloroform is eliminated by evaporation over a period of 24 hours at ambient temperature.
(§4) Before implantation, each pellet is impregnated with a solution of antibiotics:
Streptomycin 0.1 gram/ml.
(§5) The animals are anaesthetised with ether, and then two pellets are implanted in each animal in the dorsal subcutaneous tissue, on each side of the median line:
(§6) on the left, the pellet containing the product to be tested (treated animal) or the carrier only (control animal);
(§7) on the right, the pellet containing the carrier only.
(§8) The animals are given normal food and are sacrificed six days after the pellets have been implanted.
(1) Local anti-inflammatory activity
The pellets surrounded by granulomatous tissue are carefully removed and weighed, and then dried until a constant weight is obtained.
The relative activity of the test products compared with betamethasone 17,21-dipropionate is calculated according to the following equation: [formula]

[2] = system: thymus; assay: Systemic activity after local administration: effect on the weight of the thymus; conditions: rat, in vivo, 8640 min
Method: (§9) The pharmacological activity of the products described in the invention was tested in the rat using a technique similar to that described by C. A. Winter and C. C. Porter (J. Am. Pharm. Ass. 1957, 46, 9, pages 515-519).
as §1
(§10) (2) Determination of the systemic activity of the products after local administration
(§11) Local application of the corticoids may result, inter alia, in:
(a) a reduction in the defence systems of the organism, the most notable sign of which is a reduction in the weight of the animals' thymuses.
as §2, §3, §4, §5, §6, §7, §8
(2) Determination of the systemic effect
The thymuses are taken from the same animals and weighed. Using the same type of calculation, an ED 50 is determined, which corresponds to the dosage of product resulting in a 50% decrease in weight of the thymuses, compared with the control animals.

[3] = Systemic activity after local administration: effect on weight gain; conditions: rat, in vivo, 8640 min
Method: as §9, §1, §10, §11
(b) Disruption of the protein metabolism which causes tissue fusion, resulting in an inhibition of the weight increase in animals.
as §2, §3, §4, §5, §6, §7, §8
(b) Effect on weight gain
The weight gain over six days is determined on the animals before they are sacrificed.
The activity of the products was expressed as the percentage inhibition in the weight gain of the treated animals compared with the weight gain in the control animals.
The ED 30 which corresponds to a 30% inhibition in the weight gain was determined.

SMILES | R 1 (relative local anti-inflammatory activity compared with betamethasone 17,21-dipropionate) [1] | ED50 (local anti-inflammatory activity, 50% inhibition in granuloma weight) [1] | ED50 (50% decrease in weight of the thymuses) [2] | R 2 (relative effect on thymus weight compared with D.P.B.) [2] | ED30 (30% inhibition in the weight gain) [3] | R 3 (relative activity on weight gain compared with D.P.B.) [3]
CCCCC(=O)OC1(C(=O)CSC(C)=O)C(C)CC2C3CCC4=CC(=O)C=CC4(C)C3(Cl)C(O)CC21C (stereo not drawn) [Ex. 17, 9α-chloro-11β-hydroxy-16β-methyl-pregna-1,4-diene-3,20-dione (or beclomethasone) 17-valerate, 21-thioacetate] | 8.9 | 0.180 mg/pellet | > 1 mg/pellet | < 0.86 | > 1.0 mg/pellet | < 0.8
CCCCC(=O)OC1(C(=O)CSC(=O)CCCC)C(C)CC2C3CCC4=CC(=O)C=CC4(C)C3(Cl)C(O)CC21C (stereo not drawn) [Ex. 18, 9α-chloro-11β-hydroxy-16β-methyl-pregna-1,4-diene-3,20-dione (or beclomethasone) 17-valerate, 21-thiovalerate] | 16.8 | 0.096 mg/pellet | > 1 mg/pellet | < 0.86 | > 1.0 mg/pellet | < 0.8
C=C1C[C@H]2[C@@H]3CCC4=CC(=O)C=C[C@]4(C)[C@H]3[C@@H](O)C[C@]2(C)[C@@]1(OC(=O)CC)C(=O)CSC(=O)CC [Ex. 19, 11β-hydroxy-16-methylene-pregna-1,4-diene-3,20 dione (or prednylidene)17-propionate, 21-thiopropionate] | 0.89 | 1.800 mg/pellet | 7 mg/pellet | 0.12 | 0.015 mg/pellet | 53

Source: patent US4427671A, “Steroids esterified in position 17 and thioesterified in position 21, a process for preparing them and their use as medicaments” (priority 1981, dated 1984)
